Laboratory results as given in PubChem BioAssay AID1918952 (Molecular Pharmacology Branch, DTP, NCI, 2023).
pIC50: −log10 of the molar value. “And” between values parts separate entries of the source, which are not always exact repeats. Equal entries are not always repeated.

System: LG0703-F948-PDC complex spheroid viability
Test: Anticancer human tumor LG0703-F948-PDC patient-derived lung adenocarcinoma cell line growth inhibition
Conditions: for viability, T/C: stronger effect = lower value
Procedure, shortened: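 Drug combinations with the LSD1 inhibitor iadademstat tested on tumor cells co-cultured as spheroids with endothelial cells and mesenchymal stem cells. Concentrations descended in half-log increments from clinical Cmax or 10 microM.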

[1] = curve of first compound, second compound 0.1 µM
[2] = curve of first compound, second compound 0.316 µM
[3] = curve of first compound, second compound 1 µM
[4] = curve of first compound, second compound 3.16 µM
[5] = curve of first compound, second compound 10 µM
[6] = second compound 0.1 µM, first compound 0.00316 µM
[7] = second compound 0.1 µM, first compound 0.01 µM
[8] = second compound 0.1 µM, first compound 0.0316 µM
[9] = second compound 0.1 µM, first compound 0.1 µM
[10] = second compound 0.316 µM, first compound 0.00316 µM
[11] = second compound 0.316 µM, first compound 0.01 µM
[12] = second compound 0.316 µM, first compound 0.0316 µM
[13] = second compound 0.316 µM, first compound 0.1 µM
[14] = second compound 1 µM, first compound 0.00316 µM
[15] = second compound 1 µM, first compound 0.01 µM
[16] = second compound 1 µM, first compound 0.0316 µM
[17] = second compound 1 µM, first compound 0.1 µM
[18] = second compound 3.16 µM, first compound 0.00316 µM
[19] = second compound 3.16 µM, first compound 0.01 µM
[20] = second compound 3.16 µM, first compound 0.0316 µM
[21] = second compound 3.16 µM, first compound 0.1 µM
[22] = second compound 10 µM, first compound 0.00316 µM
[23] = second compound 10 µM, first compound 0.01 µM
[24] = second compound 10 µM, first compound 0.0316 µM
[25] = second compound 10 µM, first compound 0.1 µM
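Note: spheroids exposed to agents for seven days before readout.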
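Throughout, for viability, T/C: 100% = DMSO vehicle control wells as normalization base.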

Work on Nc1ncn(C2CC(O)C(CO)S2)c(=O)n1 (configuration not stated) + NC1CC1c1ccc(-c2cccc(O)c2)cc1 yielded a pIC50 [1] of less than 6.52, a pIC50 [2] of less than 6.52 and a pIC50 [3] of less than 6.52. For the same compound, the pIC50 [4] was less than 6.52, the pIC50 [5] was less than 6.52 and the viability, T/C (second compound 0.1 µM, first compound 0.000949 µM) was 114%. The viability, T/C (second compound 0.1 µM, first compound 0.003 µM) was 102%, the viability, T/C (second compound 0.1 µM, first compound 0.00949 µM) was 104% and the viability, T/C (second compound 0.1 µM, first compound 0.03 µM) was 108%. For the same compound, the viability, T/C (second compound 0.1 µM, first compound 0.0949 µM) was 108%, the viability, T/C (second compound 0.1 µM, first compound 0.3 µM) was 86.2% and the viability, T/C (second compound 0.316 µM, first compound 0.000949 µM) was 106%. The viability, T/C (second compound 0.316 µM, first compound 0.003 µM) was 92.7%, the viability, T/C (second compound 0.316 µM, first compound 0.00949 µM) was 91% and the viability, T/C (second compound 0.316 µM, first compound 0.03 µM) was 107%. For the same compound, the viability, T/C (second compound 0.316 µM, first compound 0.0949 µM) was 102%, the viability, T/C (second compound 0.316 µM, first compound 0.3 µM) was 81.1% and the viability, T/C (second compound 1 µM, first compound 0.000949 µM) was 117%. The viability, T/C (second compound 1 µM, first compound 0.003 µM) was 105%, the viability, T/C (second compound 1 µM, first compound 0.00949 µM) was 102% and the viability, T/C (second compound 1 µM, first compound 0.03 µM) was 108%. It also gave a viability, T/C (second compound 1 µM, first compound 0.0949 µM) of 82.4%, a viability, T/C (second compound 1 µM, first compound 0.3 µM) of 84.8% and a viability, T/C (second compound 3.16 µM, first compound 0.000949 µM) of 114%. For the same compound, the viability, T/C (second compound 3.16 µM, first compound 0.003 µM) was 101%, the viability, T/C (second compound 3.16 µM, first compound 0.00949 µM) was 90.8% and the viability, T/C (second compound 3.16 µM, first compound 0.03 µM) was 104%. The viability, T/C (second compound 3.16 µM, first compound 0.0949 µM) was 100%, the viability, T/C (second compound 3.16 µM, first compound 0.3 µM) was 71.5% and the viability, T/C (second compound 10 µM, first compound 0.000949 µM) was 104%. For the same compound, the viability, T/C (second compound 10 µM, first compound 0.003 µM) was 94.7%, the viability, T/C (second compound 10 µM, first compound 0.00949 µM) was 96.8% and the viability, T/C (second compound 10 µM, first compound 0.03 µM) was 105%. For the same compound, the viability, T/C (second compound 10 µM, first compound 0.0949 µM) was 103% and the viability, T/C (second compound 10 µM, first compound 0.3 µM) was 77.4%.
In the case of CC1COCCN1c1cc(-c2ccnn2C)c2ccnc(-c3ccn[nH]3)c2n1 (configuration not stated) + NC1CCC(NC2CC2c2ccccc2)CC1, the pIC50 [1] was 7.36, the pIC50 [2] was 7.31 and the pIC50 [3] was 7.37. The pIC50 [4] was 7.15, the pIC50 [5] was 7.37 and the viability, T/C [6] was 76.3%. It also gave a viability, T/C [7] of 71.6%, a viability, T/C [8] of 52.8% and a viability, T/C [9] of 37.5%. The viability, T/C (second compound 0.1 µM, first compound 0.316 µM) was 25.5%, the viability, T/C (second compound 0.1 µM, first compound 1 µM) was 13.5% and the viability, T/C [10] was 69.9%. For the same compound, the viability, T/C [11] was 79.5%, the viability, T/C [12] was 54.6% and the viability, T/C [13] was 36.2%. For the same compound, the viability, T/C (second compound 0.316 µM, first compound 0.316 µM) was 26.2%, the viability, T/C (second compound 0.316 µM, first compound 1 µM) was 16% and the viability, T/C [14] was 99.8%. For the same compound, the viability, T/C [15] was 72.4%, the viability, T/C [16] was 60.2% and the viability, T/C [17] was 34.7%. For the same compound, the viability, T/C (second compound 1 µM, first compound 0.316 µM) was 21.6%, the viability, T/C (second compound 1 µM, first compound 1 µM) was 17.6% and the viability, T/C [18] was 78.8%. It also gave a viability, T/C [19] of 85.8%, a viability, T/C [20] of 77% and a viability, T/C [21] of 38.1%. The viability, T/C (second compound 3.16 µM, first compound 0.316 µM) was 24.2%, the viability, T/C (second compound 3.16 µM, first compound 1 µM) was 13.9% and the viability, T/C [22] was 82.3%. For the same compound, the viability, T/C [23] was 78.9%, the viability, T/C [24] was 55.6% and the viability, T/C [25] was 30.1%. For the same compound, the viability, T/C (second compound 10 µM, first compound 0.316 µM) was 21.1% and the viability, T/C (second compound 10 µM, first compound 1 µM) was 11.5%.
For CC[C@@]1(O)C(=O)OCc2c1cc1n(c2=O)Cc2cc3c(CN(C)C)c(O)ccc3nc2-1 + NC1CCC(NC2CC2c2ccccc2)CC1, the pIC50 [1] was less than 7.00, the pIC50 [2] was less than 7.00 and the pIC50 [3] was less than 7.00. The pIC50 [4] was less than 7.00, the pIC50 [5] was less than 7.00 and the viability, T/C (second compound 0.1 µM, first compound 0.000316 µM) was 103%. The viability, T/C (second compound 0.1 µM, first compound 0.001 µM) was 129%, the viability, T/C [6] was 110% and the viability, T/C [7] was 87.4%. It also gave a viability, T/C [8] of 64.8%, a viability, T/C [9] of 52.8% and a viability, T/C (second compound 0.316 µM, first compound 0.000316 µM) of 117%. It also gave a viability, T/C (second compound 0.316 µM, first compound 0.001 µM) of 111%, a viability, T/C [10] of 104% and a viability, T/C [11] of 95.8%. For the same compound, the viability, T/C [12] was 78.2%, the viability, T/C [13] was 63% and the viability, T/C (second compound 1 µM, first compound 0.000316 µM) was 128%. The viability, T/C (second compound 1 µM, first compound 0.001 µM) was 132%, the viability, T/C [14] was 122% and the viability, T/C [15] was 101%. It also gave a viability, T/C [16] of 77.7%, a viability, T/C [17] of 61.9% and a viability, T/C (second compound 3.16 µM, first compound 0.000316 µM) of 110%. For the same compound, the viability, T/C (second compound 3.16 µM, first compound 0.001 µM) was 134%, the viability, T/C [18] was 117% and the viability, T/C [19] was 101%. For the same compound, the viability, T/C [20] was 98.4%, the viability, T/C [21] was 69.6% and the viability, T/C (second compound 10 µM, first compound 0.000316 µM) was 130%. It also gave a viability, T/C (second compound 10 µM, first compound 0.001 µM) of 123%, a viability, T/C [22] of 115% and a viability, T/C [23] of 96.6%. It also gave a viability, T/C [24] of 96.8% and a viability, T/C [25] of 84.5%.
For Cn1ncnc1C1c2n[nH]c(=O)c3cc(F)cc(c23)NC1c1ccc(F)cc1 (configuration not stated), the viability, T/C (compound 0.000316 µM) was 97.7% and 106%, the viability, T/C (compound 0.001 µM) was 104% and 106% and the viability, T/C (compound 0.00316 µM) was 87.8% and 95.8%. For the same compound, the viability, T/C (compound 0.01 µM) was 93.7% and 109%, the viability, T/C (compound 0.0316 µM) was 93.5% and 93.3% and the viability, T/C (compound 0.1 µM) was 79.6% and 91.1%. The pIC50 (curve of compound) was less than 7.00.
